Results as given in patent publication US20250026777A1, “COCRYSTALS OF NICOTINAMIDE RIBOSIDE SALTS, CRYSTALLINE FORMS, METHODS OF PREPARATION, AND APPLICATIONS THEREOF” (Beiture LLP, priority 2023, published 2025).
Entries after “also recorded” stand apart in the source; their conditions may differ. Like-named read-outs stand apart in the source and are kept apart here.

How the values were obtained:
[1] = Hygroscopicity evaluation at about 75% RH (NaCl saturated aqueous solution), visual powder property and polarized light microscopy; type: physicochemical; conditions: for powder property after 1 day / powder property after 7 days / powder property and crystallinity after 30 days: ~75% RH, room temperature (~22° C.); for hygroscopicity compared to NR—Cl crystalline forms: compared to NR—Cl-Form A and NR—Cl-Form B; for powder state for more than one month: environment of 75% RH
From the text: In addition to the thermal stability, the hygroscopicity, the tendency of a solid substance to absorb moisture from the surrounding atmosphere, is another important physicochemical property that needs to be considered during pharmaceutical development, because, like the heat, the moisture may also damage the drug product at a specific storage condition during the period of the drug shelf life. One of the key disadvantages of the nicotinamide riboside chloride products in the market is its poor hygroscopicity. As reported previously, all the three crystalline forms of the nicotinamide riboside chloride deliquesce at the relative humidity (RH) of 70%-80%. As a result, the nicotinamide riboside chloride requires to store in a dry place to avoid absorbing moisture from the air. […] The hygroscopicity assessment can be achieved by placing compounds in a specified relative humidity environment, e.g., ˜75% RH environment established with the sodium chloride saturated aqueous solution.
A Kerr SureTight™ container of 8 oz Clear Glass Wide Mouth Mason Jars with Silver Vacuum Seal Lid was used to secure the closure. An 8 ml opened vial containing sodium chloride (NaCl) saturated aqueous solution (about 75.5% RH at 20° C. and about 75.3% at 25° C. from www.engineeringtoolbox.com/salt-humidity-d_1887.html) was placed in the SureTight container. The 4 ml of opened vials containing about 5 mg of [NR—Cl]2[RSV] cocrystals or NR—Cl crystalline forms were also placed in the same container with the vial of the NaCl saturated aqueous solution. The container was sealed with the seal lid and placed in a room temperature condition (˜22° C.). The powder property was visually observed directly or during shaking the vial. Crystallinity was assessed under a polarized light microscope.

[2] = NR—Cl crystalline forms, previously identified; cited from earlier work
[3] = type: physicochemical
From the text: Various solvents are selected based on solubility of starting materials and crystallization methods disclosed herein. […] These differences in solubilities also impact the ratio of the two starting materials. In the disclosed methods to prepare […], a ratio between the nicotinamide riboside chloride salt and resveratrol cofomer from about 2:1 to about 2:2 to prepare [NR—Cl]2[RSV] with a NR—Cl/RSV molar ratio of 2:1.

[4] = Chemical decomposition in alcohol suspension; type: physicochemical
From the text: Reaction crystallization temperatures and times depend upon targeted crystalline form of the cocrystal of a salt that is to be crystallized, the concentration of the salt and coformer in solution, and the solvent system. It should be noted that the elevated temperature or the long reaction time should be avoided to reduce the possibility of chemical decomposition for the […]. […] Even in room temperature, the nicotinamide riboside chloride starts to decompose after stirring in the alcohol suspension for more than 3 days. The preferred reaction time is less than 24 hours with reaction temperature at around room temperature.

[5] = Thermal stability by differential scanning calorimetry (DSC); type: physicochemical; conditions: for heat of fusion: DSC; for melting/decomposition endotherm peak: heating rate 10° C./minute
From the text: Thermal stability is the stability of a molecule at elevated temperatures, and a molecule with more thermal stability has more resistance to decomposition at elevated temperatures. Thermal stability of a compound is one of the most important pharmaceutical properties that requires to be considered during developing a pharmaceutical or nutraceutical product. […] Differential Scanning calorimetry (DSC) is an analysis technique by measuring the heat change associated with the molecule's thermal events when heated at a constant rate. The temperature and its enthalpy change (usually the heat of fusion) at a specific thermal event recorded from DSC technique could be used to evaluate the thermal stability of an organic molecule directly. […] It is desirable to identify a new crystalline form with a higher melting/decomposition temperature and/or a larger heat of fusion to improve the thermal stability of the nicotinamide riboside drug substance.
DSC analysis was performed on samples prepared according to standard methods using a Q SERIES™ Q2500 DSC calorimeter available from TA INSTRUMENTS® (New Castle, Delaware). A sample (approximately 2 mg) was weighed into an aluminum sample pan and transferred to the DSC. The instrument was purged with nitrogen at 50 mL/min and data collected between 22° C. and 300° C., using a dynamic heating rate of 10° C./minute. Thermal data was analyzed using standard software, e.g., TRIOS from TA INSTRUMENTS®.

Compound	powder property after 1 day [1]	powder property after 7 days [1]	powder property and crystallinity after 30 days [1]	heat of fusion [2] [J/g]	melting/decomposing temperature [2] [°C]	solubility in EtOH [3]	solubility in IPA [3]	solubility in MeOH [3]	solubility in water [3]	hygroscopicity compared to NR—Cl crystalline forms [1]	powder state for more than one month [1]	heat of fusion [5] [J/g]	melting/decomposition endotherm peak [5]	also measured
NC(=O)c1ccc[n+]([C@@H]2O[C@H](CO)[C@@H](O)[C@H]2O)c1.[Cl-] [NR—Cl-Form A, nicotinamide riboside chloride]	deliquesced; also recorded: became sticky and could not flow freely	deliquesced	glass-like liquids (amorphous materials)	58	119									
NC(=O)c1ccc[n+]([C@@H]2O[C@H](CO)[C@@H](O)[C@H]2O)c1.[Cl-] [NR—Cl-Form B, nicotinamide riboside chloride]			glass-like liquids (amorphous materials)	69	123									
NC(=O)c1ccc[n+]([C@@H]2O[C@H](CO)[C@@H](O)[C@H]2O)c1.[Cl-] [nicotinamide riboside chloride]						poorly soluble	poorly soluble	soluble	soluble					time within which decomposition occurs in alcohol suspension ([4]; elevated temperature above 50° C.): ≤ 1 h; stirring time after which decomposition starts in alcohol suspension ([4]; room temperature): more than 3 days
Oc1ccc(/C=C/c2cc(O)cc(O)c2)cc1 [resveratrol, 3,5,4′-trihydroxy-trans-stilbene]						soluble	soluble	soluble	poorly soluble					
resveratrol cocrystal of nicotinamide riboside chloride [[NR—Cl]2[RSV]-Form A]	flowable powders	flowable powders	flowable crystalline powders							better hygroscopicity	retain as flowable crystalline powders	100	about 128 °C	thermal stability compared to NR—Cl crystalline forms ([5]; from melting/decomposition temperature and heat of fusion): better thermal stability
resveratrol cocrystal of nicotinamide riboside chloride [[NR—Cl]2[RSV]-Form B]	flowable powders	flowable powders	flowable crystalline powders							better hygroscopicity	retain as flowable crystalline powders	97	about 127 °C	
